Patent US10440955B2, “Methods comprising a biocidal polyamine” (Curza Global, LLC, priority 2013, dated 2019)
Converted amounts (≈) assume the structure as drawn. Counter-ions that a name gives are not always drawn. Like-named read-outs stand apart in the source and are kept apart here.

Experiments:
P. aeruginosa = assay: MIC, 96-well CAMHB, 10^5 to 10^2 CFU/mL in 24 hours; format: cell-based, Pseudomonas aeruginosa; details: Pseudomonas aeruginosa
Experimental: (§1) To determine the MIC of polyamine compounds, the protocol described herein was used.
(§2) In brief, a 0.5 McFarland of each bacterial isolate was made. A 0.5 McFarland is a measure of turbidity in a liquid sample that contains approximately 1×10^∧8 CFU/mL. The 0.5 McFarland standard was diluted in cation adjusted Mueller Hinton Broth (CAMHB), and 50 μL of broth were added to a well of a 96-well plate. In addition, 50 μL of CAMHB that contained a desired concentration of antimicrobial were also added to the well for a final volume of 100 μL and a final concentration of approximately 5×10^4 CFU/well (which equated to approximately 5×10^5 CFU/mL). Each well contained a desired amount of polyamine compound in order to experimentally determine the MIC. Each 96-well plate was incubated at 37° C. for 24 hours. The contents of each well were plated on tryptic soy agar (TSA). TSA plates were incubated for 37° C. for 24 hours after which the number of CFU were counted and used to calculate the CFU/mL that remained after exposure to varying concentrations of compound. This procedure was repeated n=8 times for each concentration of antimicrobial.

MRSA = assay: as above; format: cell-based, Staphylococcus aureus; details: for MIC: Staphylococcus aureus, MRSA, read-out: MIC (MRSA)
Experimental: as §1
as §2, with “antimicrobial. […]” for “antimicrobial.”

[1] = read-out: MIC (P. aeruginosa), Table 5
[2] = Table 5, read-out: MIC (P. aeruginosa)

Row | SMILES | MIC (P. aeruginosa; [1]) [µM] | MIC (MRSA) [µM] | MIC (P. aeruginosa; [2]) [µM] | MIC (MRSA) (MRSA; Table 5) | MIC (MRSA; Table 5) [µM]
1 | CCC(CC)COc1cc(CNCCCNCCCNCC(C)C)cc(CNCCCNCCCNCC(C)C)c1 [CZ-91, N^1,N^1′-((5-(2-ethylbutoxy)-1,3-phenylene)bis(methylene))bis(N^3-(3-(isobutylammonio)propyl)propane-1,3-diaminium) chloride] | < 50 | < 50 |  |  | 
2 | NCCCNCCCNCc1cccc(CNCCCNCCCN)c1 [CZ-42] |  |  | 50 to 100 (≈ 18.2 to 36.5 µg/mL) | ++ (++ = 100 μM ≥ MIC ≥ 50 μM. MIC results of “>n μM” or “<n μM” will also be designated as ++ if 100 ≥ n ≥ 50.) | 
3 | CC(C)CNCCCCCCCCCCCCNCc1cccc(-c2cc(CNCCCCCCCCCCCCNCC(C)C)cc(CNCCCCCCCCCCCCNCC(C)C)c2)c1 [CZ-117, N^1,N^1′,N^1″-([1,1′-biphenyl]-3,3′,5-triyltris(methylene))tris(N^12-isobutyldodecane-1,12-diamine)] |  |  | < 50 |  | < 50
4 | O=C1NCCCN1CCCNCc1cc(CNCCCN2CCCNC2=O)cc(-c2ccccc2)c1 [CZ-89, 1,1′-((([1,1′-biphenyl]-3,5diylbis(methylene))bis(azanediyl))bis(propane-3,1-diyl))bis(tetrahydropyrimidin-2(1H)-one)] |  |  | < 50 |  | < 50
5 | NCCCNCCCNCc1cc(CNCCCNCCCN)cc(Oc2ccccc2)c1 [CZ-74, N^1,N^1′-((5-phenoxy-1,3-phenylene)bis(methylene))bis(N^3-(3-aminopropyl)propane-1,3-diamine), hydrochloride salt] | < 50 | < 50 |  |  | 
6 | CC(C)CNCCCOc1cc(CNCCCNCCCN)cc(CNCCCNCCCN)c1 [CZ-107, N^1,N^1′-((5-(3-(isoButylammonio)propoxy)-1,3-phenylene)bis(methylene))-bis(N^3-(3-ammoniopropyl)propane-1,3-diaminium) chloride] | 50 to 100 | < 50 |  |  | 
7 | c1ccc(CNCCCNCCCNCc2cc(CNCCCNCCCNCc3ccccc3)cc(-c3ccccc3)c2)cc1 [CZ-94, N^1,N^1′-([1,1′-biphenyl]-3,5-diylbis(methylene))bis(N^3-(3-(benzylamino)propyl)propane-1,3-diamine)] |  |  | < 50 |  | < 50
8 | NCCCNCCCNCc1cc(CNCCCNCCCN)cc(-c2cc(C(F)(F)F)cc(C(F)(F)F)c2)c1 [CZ-70, N^1,N^1′-((3′,5′-bis(trifluoromethyl)-[1,1′-biphenyl]-3,5-diyl)bis(methylene))bis(N^3-(3-aminopropyl)propane-1,3-diamine), hydrochloride salt] | < 50 | < 50 |  |  | 
9 | CCCCCCNCCCNCCCCNCc1cccc(CNCCCCNCCCNCCCCCC)c1 [CZ-119, N^1,N^1′-(1,3-phenylenebis(methylene))bis(N^4-(3-(hexylamino)propyl)butane-1,4-diamine)] |  |  | < 50 |  | < 50
10 | CC(C)CNCCCNCCCNCc1cc(CNCCCNCCCNCC(C)C)cc(-c2cnn(C)c2)c1 [CZ-102, N^1,N^1′-((5-(1-methyl-1H-pyrazol-4-yl)-1,3-phenylene)bis(methylene))bis(N3-(3-(isobutylamino)propyl)propane-1,3-diamine)] |  |  | 50 to 100 (≈ 27.8 to 55.7 µg/mL) |  | < 50
11 | CC(C)CNCCCNCCCCNCc1cc(CNCCCCNCCCNCC(C)C)cc(-c2ccccc2)c1 [CZ-111, N^1,N^1′-([1,1′-biphenyl]-3,5-diylbis(methylene))bis(N^4-(3-(isobutylamino)propyl)butane-1,4-diamine)] |  |  | < 50 |  | < 50
12 | NCCCNCCCNCc1cc(CNCCCNCCCN)cc(-c2ccc(F)cc2)c1 [CZ-75, N^1,N^1′-((4′-fluoro-[1,1′-biphenyl]-3,5-diyl)bis(methylene))bis(N3-(3-aminopropyl)propane-1,3-diamine), hydrochloride salt] | < 50 | < 50 |  |  | 
13 | CC(C)CNCCCNCC(C)(C)CNCc1cc(CNCC(C)(C)CNCCCNCC(C)C)cc(-c2ccccc2)c1 [CZ-112, N^1,N^1′-([1,1′-biphenyl]-3,5-diylbis(methylene))bis(N^3-(3-(isobutylamino)propyl)-2,2-dimethylpropane-1,3-diamine)] |  |  | < 50 |  | < 50
